According to PubChem BioAssay (NCI):
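Five compound concentrations were applied to cells in 96-well plates for 48 hours; endpoints were derived by simple linear interpolation of the resulting dose-response curve. Abbreviation: GI50, concentration required for 50% inhibition of growth. TGI: total growth inhibition.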

Experiments:
Test in all cases: NCI tumour cell line growth inhibition, 48 h
NCI-H226 lung = test system: NCI-H226 lung
U251 CNS = test system: U251 CNS
A549 NSCLC = test system: A549 NSCLC
MCF7 breast = test system: MCF7 breast
786-0 renal = test system: 786-0 renal
UO-31 renal = test system: UO-31 renal
LOX IMVI melanoma = test system: LOX IMVI melanoma
SNB-19 CNS = test system: SNB-19 CNS
SR leukemia = test system: SR leukemia
K-562 leukemia = test system: K-562 leukemia
SK-OV-3 ovarian = test system: SK-OV-3 ovarian
SK-MEL-2 melanoma = test system: SK-MEL-2 melanoma
IGROV1 ovarian = test system: IGROV1 ovarian
RXF 393 renal = test system: RXF 393 renal
MDA-MB-435 = test system: MDA-MB-435
HCT-15 colon = test system: HCT-15 colon
COLO 205 colon = test system: COLO 205 colon
BT-549 breast = test system: BT-549 breast
T-47D breast = test system: T-47D breast
TK-10 renal = test system: TK-10 renal
SF-539 CNS = test system: SF-539 CNS
SN12C renal = test system: SN12C renal
HT29 colon = test system: HT29 colon
SK-MEL-28 melanoma = test system: SK-MEL-28 melanoma
MALME-3M melanoma = test system: MALME-3M melanoma
NCI-H460 lung = test system: NCI-H460 lung
OVCAR-3 ovarian = test system: OVCAR-3 ovarian
DU-145 prostate = test system: DU-145 prostate

## COc1cccc2c1c(C1=C(c3cn(C)c4ccccc34)C(=O)NC1=O)cn2C
NCI-H226 lung
  GI50: > 25 µM
  TGI: > 25 µM
U251 CNS
  GI50: > 25 µM
  TGI: > 25 µM
A549 NSCLC
  GI50: > 25 µM
  TGI: > 25 µM
MCF7 breast
  GI50: > 25 µM
  TGI: > 25 µM
786-0 renal
  GI50: > 25 µM
  TGI: > 25 µM
UO-31 renal
  GI50: > 25 µM
  TGI: > 25 µM
LOX IMVI melanoma
  GI50: > 25 µM
  TGI: > 25 µM
SNB-19 CNS
  GI50: > 25 µM
  TGI: > 25 µM
SR leukemia
  GI50: > 16.6 µM
  TGI: > 25 µM
K-562 leukemia
  GI50: > 23.9 µM
  TGI: > 25 µM
SK-OV-3 ovarian
  GI50: > 25 µM
  TGI: > 25 µM
SK-MEL-2 melanoma
  GI50: > 25 µM
  TGI: > 25 µM
IGROV1 ovarian
  GI50: > 25 µM
  TGI: > 25 µM
RXF 393 renal
  GI50: > 25 µM
  TGI: > 25 µM
MDA-MB-435
  GI50: > 13.8 µM
  TGI: > 25 µM
HCT-15 colon
  GI50: > 25 µM
  TGI: > 25 µM
COLO 205 colon
  GI50: > 25 µM
  TGI: > 25 µM
BT-549 breast
  GI50: > 25 µM
  TGI: > 25 µM
T-47D breast
  GI50: > 25 µM
  TGI: > 25 µM
TK-10 renal
  GI50: > 25 µM
  TGI: > 25 µM
SF-539 CNS
  GI50: > 25 µM
  TGI: > 25 µM
SN12C renal
  GI50: > 25 µM
  TGI: > 25 µM
HT29 colon
  GI50: > 25 µM
  TGI: > 25 µM
SK-MEL-28 melanoma
  GI50: > 25 µM
  TGI: > 25 µM
MALME-3M melanoma
  GI50: > 25 µM
  TGI: > 25 µM
NCI-H460 lung
  GI50: > 25 µM
  TGI: > 25 µM
OVCAR-3 ovarian
  GI50: > 25 µM
  TGI: > 25 µM
DU-145 prostate
  GI50: > 25 µM
  TGI: > 25 µM
